Data reported in patent publication US7994122B2, “Glucagon analogues” (Zealand Pharma A/S, priority 2007, dated 2011).
Where no end group is shown, it is not given here.

Key:
[1] = administered separately; Dakin et al. 2001; cited from earlier work
hGLP-1-R = target: T1, hGLP-1-R (Homo sapiens, UniProt P43220); assay: GLP-1 receptor efficacy assay (cAMP) in HEK293 cells expressing hGLP-1-R; format: cell-based
T1 construct: expressed in transfected cells
Description: The DNA encoding the Glucagon-R or the GLP-1-R was amplified by PCR using primers encoding terminal restriction sites for subcloning. The 5′-end primers additionally encoded a near Kozak consensus sequence to ensure efficient translation. The PCR products encoding the Glucagon-R or the GLP-1-R were subcloned into a mammalian expression vector. The fidelity of the DNA encoding the Glucagon-R and the GLP-1-R was confirmed by DNA sequencing. As the mammalian expression vector additionally encodes for G418 resistance, transfected cells may be selected by applying selection pressure with G418. […] 48 hr after transfection cells were seeded for limited dilution cloning and selected with 1 mg/ml G418 in the culture medium. […] One Glucagon-R expressing clone and one GLP-1-R expressing clone were chosen for compound profiling.
HEK293 cells expressing the hGlucagon-R, or hGLP-1-R are seeded at 40,000 cells per well in 96-well microtiter plates coated with 0.01% poly-L-lysine and grown for 1 day in culture in […] growth medium. On the day of analysis, growth medium is removed and the cells washed once with 200 μl Tyrode buffer. Cells are incubated in 100 μl Tyrode buffer containing increasing concentrations of test peptides, 100 μM IBMX, and 6 mM glucose for up 15 min at 37° C. The reaction is stopped by addition of 25 μl 0.5 M HCl and incubated on ice for 60 min. The cAMP content is estimated using the FlashPlate® cAMP kit from Perkin-Elmer. EC50 and relative efficacy are estimated by computer aided curve fitting.

[2] = Body weight in diet induced obese (DIO) mice; format: in vivo, C57BI/6J male mice; settings: HFD (DIO) mice
Experimental: Efficacious glucagon/GLP-1 receptor agonists are tested on 9-15 weeks old, 40 C57BI/6J male mice which have been kept on a High Fat Diet (HFD)—60% high-fat food (Cat. No. D12492: 20% protein, 20% carbohydrate, and 60% fat, 5.2 kcal/g; Research Diets, New Jersey, USA, for 4 weeks. The high-fat food contains soybean oil (25/773.85 g) and lard (245/773.85 g).
DIO-mice are treated with vehicle or co-agonists for 2-4 weeks by bolus administration (s.c.) twice daily. Body weight is monitored daily throughout the experiment. At the end of the experimental period animals are sacrificed, blood collected for analysis of glycated hemoglobin and a range of hormones and peptides involved in regulation of appetite, food intake, body weight, and energy balances. In addition, the epididymal/perigonadal fat pads and retroperitoneal fat (WAT) as well as the intrascapular Brown Adipose Tissue (BAT) are dissected out and weighed. […]
Following an acclimatization treatment with 100 μl vehicle (PBS) once a day for two weeks DIO-mice were treated with vehicle, control peptides or Compound 3 for 4 weeks by bolus administration (s.c.) twice daily. Body weight was monitored daily throughout the experiment. […]

T1 sequence (P43220 24-463): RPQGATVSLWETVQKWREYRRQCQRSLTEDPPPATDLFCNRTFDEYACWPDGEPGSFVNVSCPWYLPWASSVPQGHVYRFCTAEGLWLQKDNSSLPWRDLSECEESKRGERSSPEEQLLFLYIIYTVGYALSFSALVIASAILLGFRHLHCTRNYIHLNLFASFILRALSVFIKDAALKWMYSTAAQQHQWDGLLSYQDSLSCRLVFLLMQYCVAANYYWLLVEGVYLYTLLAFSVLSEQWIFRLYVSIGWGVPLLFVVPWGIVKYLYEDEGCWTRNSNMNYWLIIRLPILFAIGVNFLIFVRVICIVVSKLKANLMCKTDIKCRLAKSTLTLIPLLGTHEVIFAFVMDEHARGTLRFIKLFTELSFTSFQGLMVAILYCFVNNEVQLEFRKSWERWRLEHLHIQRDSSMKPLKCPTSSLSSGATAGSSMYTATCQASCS

Row | Substance | effect on food intake [1] | ratio (GluR / GLP1R EC values) (hGLP-1-R; first test) | EC50[Glu]/EC50[GLP-1] ratio (hGLP-1-R; re-testing) | EC50 (hGLP-1-R; re-testing, cAMP, HEK293 hGLP-1-R) | body weight gain ([2]; s.c. bolus 500 nmol/kg twice daily, 28 days, p<0.05 vs vehicle HFD) | weight reducing effect over time ([2]; s.c. twice daily, 4 weeks (FIG. 2))
1 | KRNRNNIA [IP-1, C-terminal octapeptide of oxyntomodulin] | fail to affect food intake | – | – | – | – | –
2 | H-HSQGTFTSDYSKYLDRARADDFVAWLKST-NH2 [Compound 3] | – | 1.27 | 2.13 | 0.23 nM | able to reduce body weight gain comparable to oxyntomodulin treatment | sustained over time comparable to oxyntomodulin treatment and significantly different from exendin-4 treatment
